Where a name gives a salt, the structure may show the parent alone.

For data set [1], the target named is JAK3: Recombinant human kinase domain (Homo sapiens, UniProt P52333). Briefly: Determination of IC50 of Janus Kinase (JAK) Inhibition (radioactive end-point 33P-ATP kinase assay).
JAK3: Recombinant human kinase domain, sequence (P52333 822-1111 limits assumed): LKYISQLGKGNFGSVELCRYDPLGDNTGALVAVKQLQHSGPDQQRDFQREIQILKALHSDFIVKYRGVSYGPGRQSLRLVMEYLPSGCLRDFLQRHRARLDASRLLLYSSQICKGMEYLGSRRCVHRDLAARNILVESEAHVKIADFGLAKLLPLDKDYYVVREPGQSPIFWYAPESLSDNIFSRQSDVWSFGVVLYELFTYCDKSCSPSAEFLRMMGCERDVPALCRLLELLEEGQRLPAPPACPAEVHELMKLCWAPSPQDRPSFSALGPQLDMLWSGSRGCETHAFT
Protocol: Assay conditions used are described below: • Assay Buffer: JAK Kinase Buffer: 50 mM Hepes [pH 7.2], 10 mM MgCl2, 1 mM DTT, 1 mg/ml BSA. The assay is carried out in this buffer. • Assay Format The kinase activity of all three JAK kinases is measured using a radioactive, end-point assay and with trace amounts of ^33P-ATP. The assays are carried out in 96-well polypropylene plates.
All concentrations are final in the reaction mixture and all incubations are carried at room temperature. […] Final concentration of DMSO in the reaction is 10%. • 2) Compounds are preincubated with enzyme (0.5 nM JAK3 (commercially available), 0.2 nM JAK3 (prepared), 1 nM JAK2, 5 nM JAK1) for 10 minutes. • 3) Reactions are initiated by the addition of a cocktail of the two substrates (ATP and peptide premixed in the JAK Kinase Buffer). […] JAK1 assay is carried out at an ATP concentration of 10 uM and a peptide concentration of 50 uM. • 4) The duration of the assay for JAK2 and JAK3 is 20 minutes. JAK1 assay is carried out for 40 minutes. With all three enzymes, reactions are terminated by the addition of 0.5M EDTA to a final concentration of 100 mM. • 5) 25 ul of terminated reactions are transferred to 150 ul of a 7.5% (v/v) slurry of streptavidin-coated sepharose beads in MgCl2- and CaCl2-free 1× Phosphate Buffered Saline containing 50 mM of EDTA in 96-well, 1.2 um MultiScreen-BV filter plates. • 6) After a 30-minute incubation, the beads are washed under vacuum with the following buffers: • a. 3 to 4 washes with 200 ul of 2M NaCl. • b. 3 to 4 washes with 200 ul of 2M NaCl plus 1% (v/v) phosphoric acid. • c. 1 wash with water. • 7) Washed plates are dried in a 60° C. oven for between 1 to 2 hours. • 8) 70 ul of Microscint 20 scintillation fluid is added to each well of filter plates and after at least 30 minutes of incubation, radioactive counts are measured in a Perkinelmer microplate scintillation counter.

For `CC(C)(C)C(=O)c1c[nH]c2ncc(-c3ccnc(N4CCCC4)c3)nc12` [Compound I-11, 2,2-Dimethyl-1-[2-(2-pyrrolidin-1-yl-pyridin-4-yl)-5H-pyrrolo[2,3-b]pyrazin-7-yl]-propan-1-one], the melting point fell in the range of 275.1 to 276.4 °C.

As to `CC(C)(C)C(=O)c1c[nH]c2ncc(-c3ccnc(N4CCCCC4)c3)nc12` [Compound I-13, 2,2-Dimethyl-1-[2-(3,4,5,6-tetrahydro-2H-[1,2′]bipyridinyl-4′-yl)-5H-pyrrolo[2,3-b]pyrazin-7-yl]-propan-1-one], the melting point fell in the range of 250 to 251 °C.

`CC(C)(C)C(=O)c1c[nH]c2ncc(-c3ccc(C(=O)NC4CCOCC4)s3)nc12` [Compound I-32, 5-[7-(2,2-Dimethyl-propionyl)-5H-pyrrolo[2,3-b]pyrazin-2-yl]-thiophene-2-carboxylic acid (tetrahydro-pyran-4-yl)-amide] had a melting point of more than 300 °C.

As for `CC(=O)N1CCN(c2cc(-c3cnc4[nH]cc(C(=O)C(C)(C)C)c4n3)ccn2)CC1` [Compound I-5, 1-{2-[2-(4-Acetyl-piperazin-1-yl)-pyridin-4-yl]-5H-pyrrolo[2,3-b]pyrazin-7-yl}-2,2-dimethyl-propan-1-one], the melting point was 257 to 260 °C.

Take `CC(C)(C)C(=O)c1c[nH]c2ncc(-c3cn(C4CCCC4)nn3)nc12` [Compound I-12, 1-[2-(1-Cyclopentyl-1H-[1,2,3]triazol-4-yl)-5H-pyrrolo[2,3-b]pyrazin-7-yl]-2,2-dimethyl-propan-1-one]: the melting point was in the range of 193.3 to 199.3 °C.

Consider `CC(C)(C)C(=O)c1c[nH]c2ncc(-n3ccc4ccccc43)nc12` [Compound I-97, 1-(2-Indol-1-yl-5H-pyrrolo[2,3-b]pyrazin-7-yl)-2,2-dimethyl-propan-1-one], for which the melting point fell in the range of 205 to 207 °C.

Take `CC(C)(C)C(=O)c1c[nH]c2ncc(-c3cn(Cc4ccccc4)nn3)nc12` [Compound I-105, 1-[2-(1-Benzyl-1H-[1,2,3]triazol-4-yl)-5H-pyrrolo[2,3-b]pyrazin-7-yl]-2,2-dimethyl-propan-1-one]: the melting point is 235 to 237 °C.

Molecule `CCOC(=O)c1cc2cc(C3=C(c4cnc5[nH]cc(C(=O)C(C)(C)C)c5n4)CCC3)ccc2[nH]1` [Compound I-39, 5-{2-[7-(2,2-Dimethyl-propionyl)-5H-pyrrolo[2,3-b]pyrazin-2-yl]-cyclopent-1-enyl}-1H-indole-2-carboxylic acid ethyl ester] returned a melting point of 278 to 280 °C.

`CC1(C(=O)c2c[nH]c3ncc(-c4cccs4)nc23)CCCCC1` [Compound I-106, (1-Methyl-cyclohexyl)-(2-thiophen-2-yl-5H-pyrrolo[2,3-b]pyrazin-7-yl)-methanone] displayed a melting point of 224 to 225 °C.

The molecule `Cc1nccn1-c1cnc2[nH]cc(C(=O)C(C)(C)C)c2n1` [Compound I-108, 2,2-Dimethyl-1-[2-(2-methyl-imidazol-1-yl)-5H-pyrrolo[2,3-b]pyrazin-7-yl]-propan-1-one] yielded a melting point of 247 to 249 °C.

As to `CC1=NCCN1c1cnc2[nH]cc(C(=O)C(C)(C)C)c2n1` [Compound I-109, 2,2-Dimethyl-1-[2-(2-methyl-4,5-dihydro-imidazol-1-yl)-5H-pyrrolo[2,3-b]pyrazin-7-yl]-propan-1-one], the melting point is 235 to 236 °C.

`COc1cncc(-c2cnc3[nH]cc(C(=O)C(C)(C)C)c3n2)c1` [Compound I-6, 1-[2-(5-Methoxy-pyridin-3-yl)-5H-pyrrolo[2,3-b]pyrazin-7-yl]-2,2-dimethyl-propan-1-one] registered a melting point of 215 to 223.6 °C.

Molecule `CC(C)(C)C(=O)c1c[nH]c2ncc(C3=C(c4ccccc4)CCC3)nc12` [Compound I-38, 2,2-Dimethyl-1-[2-(2-phenyl-cyclopent-1-enyl)-5H-pyrrolo[2,3-b]pyrazin-7-yl]-propan-1-one] gave a melting point of 207 to 209 °C.

`CC(C)(C)C(=O)c1c[nH]c2ncc(-n3ccnc3)nc12` [Compound I-107, 1-(2-Imidazol-1-yl-5H-pyrrolo[2,3-b]pyrazin-7-yl)-2,2-dimethyl-propan-1-one] gave a melting point of 215 to 217 °C.

Turning to `CC(C)(C)C(=O)c1c[nH]c2ncc(-c3ccc(C(=O)NC4CCCC4)s3)nc12` [Compound I-31, 5-[7-(2,2-Dimethyl-propionyl)-5H-pyrrolo[2,3-b]pyrazin-2-yl]-thiophene-2-carboxylic acid cyclopentylamide], the melting point is more than 300 °C.

On to `CC(C)NC(=O)c1c[nH]c2ncc(N3CCCC(N(C)C(=O)OC(C)(C)C)C3)nc12` (stereo not drawn) [Compound I-7, [1-(7-Isopropylcarbamoyl-5H-pyrrolo[2,3-b]pyrazin-2-yl)-piperidin-3-yl]-methyl-carbamic acid tert-butyl ester], for which the melting point lay in the range of 251 to 252 °C.

Regarding `CC(C)(C)C(=O)c1c[nH]c2ncc(-c3cn(S(=O)(=O)c4ccccc4)c4ccccc34)nc12` [Compound I-1, 1-[2-(1-Benzenesulfonyl-1H-indol-3-yl)-5H-pyrrolo[2,3-b]pyrazin-7-yl]-2,2-dimethyl-propan-1-one], the melting point was 267 to 268 °C.

Consider `CC1CCCN1c1cc(-c2cnc3[nH]cc(C(=O)C(C)(C)C)c3n2)ccn1` (stereo not drawn) [Compound I-16, 2,2-Dimethyl-1-{2-[2-(2-methyl-pyrrolidin-1-yl)-pyridin-4-yl]-5H-pyrrolo[2,3-b]pyrazin-7-yl}-propan-1-one], for which the melting point lay in the range of 220 to 221 °C.

The molecule `CCC(CC)NC(=O)c1cc(-c2cnc3[nH]cc(C(=O)C4(C)CCCCC4)c3n2)cs1` (as salt: hydrochloride) [Compound I-43, 4-[7-(1-Methyl-cyclohexanecarbonyl)-5H-pyrrolo[2,3-b]pyrazin-2-yl]-thiophene-2-carboxylic acid (1-ethyl-propyl)-amide] showed a melting point of 273 to 275 °C.

Turning to `CC1(C(=O)c2c[nH]c3ncc(-c4ccc(C(=O)N5CCC(O)C5)s4)nc23)CCCCC1` (stereo not drawn) [Compound I-74, {2-[5-(3-Hydroxy-pyrrolidine-1-carbonyl)-thiophen-2-yl]-5H-pyrrolo[2,3-b]pyrazin-7-yl}-(1-methyl-cyclohexyl)-methanone], the IC50 in data set [1] is 0.0283 µM.

Take `CC(C)(C)C(=O)c1c[nH]c2ncc(-c3cncs3)nc12` [Compound I-121, 2,2-Dimethyl-1-(2-thiazol-5-yl-5H-pyrrolo[2,3-b]pyrazin-7-yl)-propan-1-one]: the melting point fell in the range of 281 to 282 °C.

For the molecule `CCc1nccn1-c1cnc2[nH]cc(C(=O)C(C)(C)C)c2n1` [Compound I-110, 1-[2-(2-Ethyl-imidazol-1-yl)-5H-pyrrolo[2,3-b]pyrazin-7-yl]-2,2-dimethyl-propan-1-one], the melting point fell in the range of 276 to 278 °C.

`CC(C)(C)C(=O)c1c[nH]c2ncc(-c3ccnc(N4CCSCC4)c3)nc12` [Compound I-15, 2,2-Dimethyl-1-[2-(2-thiomorpholin-4-yl-pyridin-4-yl)-5H-pyrrolo[2,3-b]pyrazin-7-yl]-propan-1-one] returned a melting point of 287 to 290 °C.

Consider `CNC1CCCN(c2cnc3[nH]cc(C(=O)NC(C)C)c3n2)C1` (stereo not drawn) [Compound I-8, 2-(3-Methylamino-piperidin-1-yl)-5H-pyrrolo[2,3-b]pyrazine-7-carboxylic acid isopropylamide; compound with trifluoro-acetic acid], for which the melting point was 54 to 64 °C.

In the case of `CN(CC#N)C(=O)c1cc(-c2cnc3[nH]cc(C(=O)C4(C)CCCCC4)c3n2)cs1` [Compound I-40, 4-[7-(1-Methyl-cyclohexanecarbonyl)-5H-pyrrolo[2,3-b]pyrazin-2-yl]-thiophene-2-carboxylic acid cyanomethyl-methyl-amide], the IC50 in data set [1] was determined as 0.0447 µM.

Turning to `CN(C)C1CCN(c2cc(-c3cnc4[nH]cc(C(=O)C(C)(C)C)c4n3)ccn2)C1` (stereo not drawn) [Compound I-14, 1-{2-[2-(3-Dimethylamino-pyrrolidin-1-yl)-pyridin-4-yl]-5H-pyrrolo[2,3-b]pyrazin-7-yl}-2,2-dimethyl-propan-1-one], the melting point is 226 to 228 °C.

As to `CN(CCO)C(=O)c1ccc(-c2cnc3[nH]cc(C(=O)C4(C)CCCCC4)c3n2)s1` [Compound I-73, 5-[7-(1-Methyl-cyclohexanecarbonyl)-5H-pyrrolo[2,3-b]pyrazin-2-yl]-thiophene-2-carboxylic acid (2-hydroxy-ethyl)-methyl-amide], in data set [1], the IC50 came out at 0.018 µM.

By melting point is commonly meant the temperature, or range, at which the solid turns liquid. As a reminder, the IC50 is the concentration needed to halve the response being measured.

The values are drawn from patent US7939531B2, “Pyrrolopyrazine kinase inhibitors” (Roche Palo Alto, priority 2008, dated 2011).
